Measurements taken from ChEMBL document CHEMBL6114964, “Discovery of novel spirocyclic derivates as potent androgen receptor antagonists” (Bioorg Med Chem, 2025).

Key:
LNCaP = experiment: cells; format: functional, cell-based; details: Homo sapiens, 168 h
Description: Antiproliferative activity against human LNCaP cells incubated for 7 days in presence of R1881 by Celltiter-Glo assay

cells = format: functional, cell-based; details: Homo sapiens, LNCaP-EnzR, 168 h
Description: Antiproliferative activity against human LNCaP-EnzR cells assessed as inhibition of cell viability incubated for 7 days by Celltiter-Glo assay

CWR22R = experiment: cells; format: functional, cell-based; details: Homo sapiens, 22Rv1, 168 h
Description: Antiproliferative activity against human 22Rv1 cells assessed as inhibition of cell viability incubated for 7 days by Celltiter-Glo assay

Androgen receptor [1] = biological target: T1, Androgen receptor (Homo sapiens, UniProt P10275); format: cell-based, HEK293
T1 sequence (P10275 whole entry): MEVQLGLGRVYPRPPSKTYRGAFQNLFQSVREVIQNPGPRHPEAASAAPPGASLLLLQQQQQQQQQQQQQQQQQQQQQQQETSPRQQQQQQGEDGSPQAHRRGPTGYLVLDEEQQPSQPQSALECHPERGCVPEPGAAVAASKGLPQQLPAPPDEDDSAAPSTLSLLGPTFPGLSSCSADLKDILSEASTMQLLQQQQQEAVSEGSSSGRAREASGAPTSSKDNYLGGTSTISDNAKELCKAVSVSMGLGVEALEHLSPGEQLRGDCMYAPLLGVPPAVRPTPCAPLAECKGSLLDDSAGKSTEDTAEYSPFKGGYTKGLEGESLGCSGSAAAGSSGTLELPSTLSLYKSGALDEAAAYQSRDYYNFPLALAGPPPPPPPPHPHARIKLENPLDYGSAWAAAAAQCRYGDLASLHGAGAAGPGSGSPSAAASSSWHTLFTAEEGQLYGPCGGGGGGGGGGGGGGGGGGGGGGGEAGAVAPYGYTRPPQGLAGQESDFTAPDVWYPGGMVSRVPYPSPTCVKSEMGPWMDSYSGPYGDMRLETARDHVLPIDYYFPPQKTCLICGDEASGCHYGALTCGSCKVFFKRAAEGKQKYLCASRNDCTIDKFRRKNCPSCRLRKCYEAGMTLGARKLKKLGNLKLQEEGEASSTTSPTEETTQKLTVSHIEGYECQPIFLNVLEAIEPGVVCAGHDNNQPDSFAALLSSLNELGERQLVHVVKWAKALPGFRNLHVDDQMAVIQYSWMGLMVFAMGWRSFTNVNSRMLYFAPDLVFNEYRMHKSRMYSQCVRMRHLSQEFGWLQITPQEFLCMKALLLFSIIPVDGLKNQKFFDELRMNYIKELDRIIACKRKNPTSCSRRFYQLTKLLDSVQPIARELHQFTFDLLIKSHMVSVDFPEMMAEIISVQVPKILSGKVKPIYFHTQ

Androgen receptor [2] = biological target: Androgen receptor (Homo sapiens, UniProt P10275, W742L); format: cell-based, HEK293
in vitro [3] = details: human, microsomes
Description: Metabolic stability in human liver microsomes assessed as parent compound remaining at 1 uM measured after 60 mins in presence of NADPH by LC-MS/MS analysis

in vitro [4] = details: mouse, microsomes
Description: Metabolic stability in mouse liver microsomes assessed as parent compound remaining at 1 uM measured after 60 mins in presence of NADPH by LC-MS/MS analysis

in vitro [5] = details: human, microsomes; remark: listed apart in the source
Androgen receptor [6] = biological target: Androgen receptor (Homo sapiens, UniProt P10275, F877L); format: cell-based, HEK293
in vitro [7] = details: human, microsomes; remark: listed apart in the source
[8] = mouse, microsomes, 1 h, 1 µM

N#Cc1ccc(N2CCC3(CC(NC(=O)c4ccc(C(=O)O)cc4)C3)C2)cc1C(F)(F)F (centres undefined) gave an IC50 (LNCaP) of over 50000 nM.
Compound C[C@](O)(Cn1ccc2cc(F)ccc21)C(=O)Nc1ccc(C#N)c(C(F)(F)F)c1 has an IC50 (cells) of 10900 nM and an IC50 (CWR22R) of 9980 nM.
For COc1ccc(C(=O)NC2CC3(CCN(c4ccc(C#N)c(C(F)(F)F)c4)C3)C2)cc1 (centres undefined), the IC50 (Androgen receptor [1]) was 25.1 nM and the IC50 (LNCaP) was 920 nM.
For N#Cc1ccc(-c2ccc(C(=O)NC3CC4(CCN(c5ccc(C#N)c(C(F)(F)F)c5)C4)C3)cc2)cc1 (centres undefined), the IC50 (Androgen receptor [1]) was 29.8 nM, the IC50 (Androgen receptor [2]) was 160 nM and the IC50 (cells) was 1140 nM. For the same compound, the IC50 (LNCaP) was 80 nM and the IC50 (CWR22R) was over 50000 nM.
With COC(=O)c1ccc(C(=O)NC2CC3(CCN(c4ccc(C#N)c(C(F)(F)F)c4)C3)C2)cc1 (centres undefined) the IC50 (LNCaP) was 6460 nM.
In the case of CC(O)c1cc(C(=O)N[C@@H](C)Cn2ccc(-c3ccc(C#N)c(Cl)c3)n2)n[nH]1 (some centres undefined) [DAROLUTAMIDE], the IC50 (cells) is reported as 31200 nM.
With N#Cc1ccc(N2CCC3(CC(NC(=O)c4ccc([N+](=O)[O-])cc4)C3)C2)cc1C(F)(F)F (centres undefined) the IC50 (LNCaP) was 3280 nM.
With CC(O)c1cc(C(=O)NC2CC3(CCN(c4ccc(C#N)c(C(F)(F)F)c4)C3)C2)n[nH]1 (centres undefined) the IC50 (LNCaP) was over 100000 nM.
In the case of Cc1ccc(C(=O)NC2CC3(CCN(c4ccc(C#N)c(C(F)(F)F)c4)C3)C2)cn1 (centres undefined), the IC50 (Androgen receptor [1]) is reported as 33.2 nM and the IC50 (LNCaP) is reported as 2570 nM.
Work on N#Cc1ccc(N2CCC3(CC(NC(=O)c4ccccc4)C3)C2)cc1C(F)(F)F (centres undefined) yielded an IC50 (Androgen receptor [1]) of 43.7 nM.
In the case of Cc1ccc(C(=O)NC2CC3(CCN(c4ccc(C#N)c(C(F)(F)F)c4)C3)C2)cc1 (centres undefined), the IC50 (LNCaP) is reported as 1260 nM.
For N#Cc1ccc(N2CCC3(CC(NC(=O)c4ccc(F)cc4)C3)C2)cc1C(F)(F)F (centres undefined), the IC50 (LNCaP) was 2230 nM.
With N#Cc1ccc(-c2ccc(C(=O)NC3CC4(CCN(c5ccc(C#N)c(C(F)(F)F)c5)C4)C3)cc2)cc1F (centres undefined) the remaining at 1 h, 1 µM (in vitro [3]) was 76.8%, the IC50 (Androgen receptor [2]) was 116 nM and the remaining at 1 h, 1 µM (in vitro [4]) was 100%. The half-life at 1 h, 1 µM (in vitro [5]) was 2.57 h, the IC50 (Androgen receptor [6]) was over 10000 nM and the IC50 (cells) was 1190 nM. It also gave a microsomal CLint at 1 h, 1 µM (in vitro [7]) of 9 µL/min/mg, an IC50 (LNCaP) of 190 nM and an IC50 (CWR22R) of over 50000 nM.
In the case of N#Cc1ccc(CN2CC3(CCN(c4ccc(C#N)c(C(F)(F)F)c4)C3)C2)cc1, the IC50 (Androgen receptor [1]) is reported as 313 nM.
For CN1CCN(c2ccc(C(=O)NC3CC4(CCN(c5ccc(C#N)c(C(F)(F)F)c5)C4)C3)cc2)CC1 (centres undefined), the IC50 (Androgen receptor [1]) was 24.6 nM and the IC50 (LNCaP) was 3570 nM.
Compound N#Cc1ccc(N2CCC3(CC(NC(=O)c4ccc(-c5ccc(OCCO)cc5)cc4)C3)C2)cc1C(F)(F)F (centres undefined) has an IC50 (LNCaP) of 650 nM.
In the case of N#Cc1ccc(N2CCC3(CC(NC(=O)c4ccc(CO)cc4)C3)C2)cc1C(F)(F)F (centres undefined), the IC50 (Androgen receptor [1]) is reported as 37.8 nM and the IC50 (LNCaP) is reported as 1990 nM.
In the case of CNC(=O)c1ccc(C(=O)NC2CC3(CCN(c4ccc(C#N)c(C(F)(F)F)c4)C3)C2)cc1F (centres undefined), the IC50 (Androgen receptor [1]) is reported as 26.3 nM and the IC50 (LNCaP) is reported as 2260 nM.
For N#Cc1ccc(NC(=O)C2CC3(CCN(c4ccc(C#N)c(C(F)(F)F)c4)C3)C2)cc1 (centres undefined), the IC50 (LNCaP) was 4370 nM.
Work on C[C@](O)(CN1CCN(c2ccc(-c3ccc(C#N)c(F)c3)cc2)CC1)C(=O)Nc1ccc(C#N)c(C(F)(F)F)c1 yielded a remaining at 1 h, 1 µM (in vitro [3]) of 0.74%, a CLH [8] of 282 µL/min and a remaining at 1 h, 1 µM (in vitro [4]) of 12.2%. For the same compound, the half-life at 1 h, 1 µM (in vitro [5]) was 0.0825 h, the IC50 (cells) was 3290 nM and the microsomal CLint at 1 h, 1 µM (in vitro [7]) was 252 µL/min/mg. For the same compound, the IC50 (CWR22R) was 2340 nM.
